Measured values: patent US10780101B2, “Amide derivatives of squalamine for the treatment of infections” (VIRBAC, priority 2016, dated 2020)
≈ marks a conversion by molar mass, not a printed value.

Assays:
[1] = tested on: P. aeruginosa Animal (1051575); test: MIC determination, P. aeruginosa animal (1051575); assay type: cell-based; settings: Pseudomonas aeruginosa; Gram-negative; Mueller-Hinton medium, 24 h at 37° C.
Protocol: (§1) A negative control (2 mL of sterile culture medium)
(§2) A positive control (1940 μL of culture medium+40 μL of DMSO+20 μL of the bacterial suspension) from a thawed biological strain (the biological strains are stored at −80° C. in glycerol).
(§3) The tubes were incubated at 37° C. for 24 hours at 100 rpm.
(§4) The microorganisms were handled under a type L2 laboratory fume cupboard and, before any handling, a UV cycle was programmed and only sterile material was used. […] The chemical compounds to be tested were prepared in a DMSO/methanol mixture (50/50) at a concentration of 5 mg/mL.
(§5) After 24 hours of incubation, a measurement of the optical density was taken using a spectrophotometer at 600 nm, collecting 100 μL of the bacterial suspension diluted in 900 μL of the sterile culture medium. This test required the use of a 96-well plate and the required volume of the microbial suspension to be seeded was calculated for an OD corresponding to a value equal to 0.01 in each well. In this plate, the first line corresponded to the negative control (195 μL of sterile culture medium in each well), the second line corresponded to the positive control (seeded culture medium supplemented with 2% of DMSO), and the third line was loaded twice with bacterial suspension; 8 μL of test product were placed in each well. Thereafter, a 0.5 cascade dilution was performed from this line.
(§6) The first column served as inhibition control. A sterile filter was then placed on the microplate, allowing the passage of gases but not of contaminants. The microplate was incubated at 37° C. under a humid atmosphere for 24 hours.
(§7) NB: The medium used is Mueller-Hinton (MH) medium for bacteria. All the tests were performed in duplicate.
(§8) After incubation, the filter was replaced with a transparent film, and an OD reading was then taken in an iEMS plate spectrophotometer at 620 nm. Calculation of the minimum inhibitory concentration (MIC) was performed.

[2] = tested on: P. aeruginosa Human ATCC 27853; test: MIC determination, P. aeruginosa human ATCC 27853; assay type: cell-based; settings: Pseudomonas aeruginosa, ATCC27853; Gram-negative; Mueller-Hinton medium, 24 h at 37° C.
Protocol: as §1, §2, §3, §4, §5, §6, §7, §8

CHO-K1 cells = test: WST1 cytotoxicity test on CHO-K1 cells; assay type: cell-based, Chinese hamster; settings: Cricetulus griseus, CHO-K1, 24 h, read-out: IC50 (μg/mL) CHO
Protocol: Test WST1 was used to measure the cytotoxic activity of the products. This is a colorimetric test which makes it possible to measure the viability and the degree of cell proliferation. It is based on cleavage of the colorless tetrazolium salts WST-1 (4-[3-(4-iodophenyl)-2-(4-nitrophenyl)-2H-5-tetrazolio]-1,3-benzene disulfonate) with mitochondrial dehydrogenases to the yellow-colored formazan derivative, which may be quantified by spectrophotometry at 420-480 nm.
The WST1 test was performed on Chinese hamster ovary cells. The CHO-K1 cells (ATCC, USA) are kept in culture in McCoy's 5A medium supplemented with 10% fetal calf serum, 2 mM of L-glutamine and a mixture of penicillin-streptomycin (100 U/ml: 10 μg/ml). The culture is incubated at 37° C. under an atmosphere enriched in CO2 (5%), and subcultured every two days.
The cells are transferred into 96-well plates (25000 cells/mL) in whole McCoy's 5A medium, and maintained for 24 hours at 37° C. under a humid atmosphere enriched in CO2 (5%). Increasing concentrations of test products are added to the wells in double tests and 8 growth controls containing the cells in the medium alone are included in each series of tests. After 24 hours at 37° C. (5% CO2), the culture medium is removed, the cells are rinsed in phosphate buffer (PBS) and 50 μL of PBS containing 10% of reagent WST1 are added to each well. After 20 minutes of incubation at 37° C., the results are read by spectrophotometry at 450 nm.
The results are expressed in dose-response relationships, modeled by nonlinear regression analysis using the TableCurve software. The 50% inhibitory concentration (IC50) represents the concentration of product that is capable of reducing the cell viability by 50%.

[3] = tested on: S. aureus Human ATCC 25923; test: MIC determination, S. aureus human ATCC 25923; assay type: cell-based; settings: Staphylococcus aureus, ATCC25923; Gram-positive; Mueller-Hinton medium, 24 h at 37° C.
Protocol: as §1, §2, §3, §4, §5, §6, §7, §8

E. coli Animal (1956) = test: MIC determination, E. coli animal (1956); assay type: cell-based; settings: Escherichia coli; Gram-negative; Mueller-Hinton medium, 24 h at 37° C.
Protocol: as §1, §2, §3, §4, §5, §6, §7, §8

[4] = tested on: S. intermedius Animal (1051997); test: MIC determination, S. intermedius animal (1051997); assay type: cell-based; settings: Staphylococcus intermedius; Gram-positive; Mueller-Hinton medium, 24 h at 37° C.
Protocol: as §1, §2, §3, §4, §5, §6, §7, §8

S. aureus Animal (340) = test: MIC determination, S. aureus animal (340); assay type: cell-based; settings: Staphylococcus aureus; Gram-positive; Mueller-Hinton medium, 24 h at 37° C.
Protocol: as §1, §2, §3, §4, §5, §6, §7, §8

P. aeruginosa (1051575) = test: Potentiation of doxycycline activity (combination MIC); assay type: cell-based, Pseudomonas aeruginosa; settings: for MIC - P. aeruginosa (1051575): content of compound of formula (I) to restore the doxycycline activity (at 2 μg/mL): in presence of doxycycline 2 μg/mL, 24 hours at 37° C.; for synergism when administered with doxycycline: doxycycline at 2 μg/mL
E. coli Human ATCC 28922 = test: MIC determination, E. coli human ATCC 28922; assay type: cell-based; settings: Escherichia coli, ATCC28922; Gram-negative; Mueller-Hinton medium, 24 h at 37° C.
Protocol: as §1, §2, §3, §4, §5, §6, §7, §8

[5] = tested on: E. faecalis Human ATCC 29212; test: MIC determination, E. faecalis human ATCC 29212; assay type: cell-based; settings: Enterococcus faecalis, ATCC29212; Gram-positive; Mueller-Hinton medium, 24 h at 37° C.
Protocol: as §1, §2, §3, §4, §5, §6, §7, §8

SMILES	MIC [1]	MIC [2]	IC50 (CHO-K1 cells)	MIC [3]	MIC (E. coli Animal (1956))	MIC [4]	MIC (S. aureus Animal (340))	MIC - P. aeruginosa (1051575): content of compound of formula (I) to restore the doxycycline activity (at 2 μg/mL) (P. aeruginosa (1051575))	MIC (E. coli Human ATCC 28922)	MIC [5]	synergism when administered with doxycycline (P. aeruginosa (1051575))
CCN(CC)C(=O)CC[C@@H](C)[C@H]1CCC2C3C(CC[C@@]21C)[C@@]1(C)CC[C@H](NCCCNCCNCCCN)CC1C[C@H]3O (stereo partly drawn) [(53), 3β-(bis(3-aminopropyl)ethylenediamine)-N,N-diethylchenodeoxycholamide]	15 µg/mL (≈ 24.8 µM)	30 µg/mL (≈ 49.7 µM)	30 µg/mL (≈ 49.7 µM)	4 µg/mL (≈ 6.62 µM)	15 µg/mL (≈ 24.8 µM)	2 µg/mL (≈ 3.31 µM)	4 µg/mL (≈ 6.62 µM)	2 µg/mL	60 µg/mL (≈ 99.3 µM)	2 µg/mL (≈ 3.31 µM)	
CC(C)NC(=O)CC[C@@H](C)[C@H]1CCC2C3C(C[C@H](O)[C@@]21C)[C@@]1(C)CC[C@H](NCCCN(C)CCCN)CC1C[C@H]3O (stereo partly drawn) [(26), 3β-(bis(3-aminopropyl)methylamine)-N-isopropylcholamide]	56 µg/mL (≈ 97.1 µM)	112 µg/mL (≈ 194 µM)	80 µg/mL (≈ 139 µM)	28 µg/mL (≈ 48.5 µM)	56 µg/mL (≈ 97.1 µM)	14 µg/mL (≈ 24.3 µM)	28 µg/mL (≈ 48.5 µM)	4 µg/mL	28 µg/mL (≈ 48.5 µM)	56 µg/mL (≈ 97.1 µM)	
CC(C)NC(=O)CC[C@@H](C)[C@H]1CCC2C3C(CC[C@@]21C)[C@@]1(C)CC[C@H](NCCCN2CCN(CCCN)CC2)CC1C[C@H]3O (stereo partly drawn) [(9), 3β-(1,4-bis(3-aminopropyl)piperazine)-N-isopropylchenodeoxycholamide]	62 µg/mL (≈ 101 µM)	124 µg/mL (≈ 201 µM)	90 µg/mL (≈ 146 µM)	16 µg/mL (≈ 26 µM)	15 µg/mL (≈ 24.4 µM)	8 µg/mL (≈ 13 µM)	8 µg/mL (≈ 13 µM)	2 µg/mL	15 µg/mL (≈ 24.4 µM)	62 µg/mL (≈ 101 µM)	noteworthy synergism
CC(C)NC(=O)CC[C@@H](C)[C@H]1CCC2C3CCC4C[C@@H](NCCCNCCCCNCCCN)CC[C@]4(C)C3C[C@H](O)[C@@]21C (stereo partly drawn) [(30), 3β-spermino-N-isopropyldeoxycholamide]	4 µg/mL (≈ 6.47 µM)	4 µg/mL (≈ 6.47 µM)	30 µg/mL (≈ 48.5 µM)	8 µg/mL (≈ 12.9 µM)	30 µg/mL (≈ 48.5 µM)	1 µg/mL (≈ 1.62 µM)	8 µg/mL (≈ 12.9 µM)	1 µg/mL	15 µg/mL (≈ 24.3 µM)	15 µg/mL (≈ 24.3 µM)	
C[C@H](CCC(=O)NC1CCCCC1)[C@H]1CCC2C3C(CC[C@@]21C)[C@@]1(C)CC[C@H](NCCCNCCCN)CC1C[C@H]3O (stereo partly drawn) [(38), 3β-norspermidino-N-cyclohexylchenodeoxycholamide]	30 µg/mL (≈ 51.1 µM)	30 µg/mL (≈ 51.1 µM)	12 µg/mL (≈ 20.4 µM)	4 µg/mL (≈ 6.81 µM)	15 µg/mL (≈ 25.6 µM)	2 µg/mL (≈ 3.41 µM)	4 µg/mL (≈ 6.81 µM)	2 µg/mL	30 µg/mL (≈ 51.1 µM)	4 µg/mL (≈ 6.81 µM)	
CC(C)NC(=O)CC[C@@H](C)[C@H]1CCC2C3CCC4C[C@@H](NCCCNCCCCNCCCN)CC[C@]4(C)C3CC[C@@]21C (stereo partly drawn) [Compound (36), 3β-spermino-N-isopropyllithocholamide]	30 µg/mL (≈ 49.8 µM)	15 µg/mL (≈ 24.9 µM)	36 µg/mL (≈ 59.8 µM)	3.75 µg/mL (≈ 6.23 µM)	15 µg/mL (≈ 24.9 µM)	1.87 µg/mL (≈ 3.11 µM)	3.75 µg/mL (≈ 6.23 µM)	0.5 µg/mL	7.5 µg/mL (≈ 12.5 µM)	7.5 µg/mL (≈ 12.5 µM)	noteworthy synergism
